# Entries after “also recorded” stand apart in the source; their conditions may differ.
# Columns and labels:
# CD36 gene expression = assay: Suppression effect of taxifolin on CD36 gene expression in the liver tissue of high-fat diet-induced model mice (real-time PCR); type: in vivo, mouse; conditions: C57BL/6J male mice, corrected by GAPDH
# Excerpt: In Test Example 1, the taxifolin's action on the CD36 gene expression in the liver tissue was studied using the high-fat diet-induced model mice.
# The C57BL/6J male mice (7 weeks old: CLEA Japan, Inc.) were acclimated for one week with a normal solid diet (MF: Oriental Yeast Co., Ltd.) and with freely available drinking water.
# The 8 weeks old mice after the acclimation were divided into 4 groups with 5 mice each, namely, the group of those raised with a normal solid diet for 12 weeks until 20 weeks old (hereinafter, “ND Group”), the group raised with a high fat diet (HFD-60 (506 kcal/100 g; 60% fat content in terms of energy rate): Oriental Yeast Co., Ltd.) (hereinafter, “HFD Group”), the group raised with the high fat diet containing 1% by weight of taxifolin (hereinafter, “HFD+1% TX-administered Group”), and the group raised with the high fat diet containing 3% by weight of taxifolin (hereinafter, “HFD+3% TX-administered Group”).
# The mice raised until 20 weeks old were anesthetized with ether, and after they were euthanized by cervical dislocation, the liver of each individual was removed. […]
# The mRNA expression amount of CD36 was corrected by the expression amount of glyceraldehyde-3-phosphate dehydrogenase (GAPDH), and this was comparatively quantified using the ΔΔCt method. […]
# MC4R deficient mouse = assay: Prophylactic effect of taxifolin on hepatocarcinoma in MC4R deficient mouse loaded with a high fat diet; type: in vivo; conditions: high fat diet containing 3% of taxifolin from 20 to 50 weeks old, vs reference group
# Excerpt: In Test Example 3, the taxifolin's action on the hepatocarcinoma by using the melanocortin-4 receptor deficient mouse (hereinafter, “MC4R deficient mouse”) loaded with a high fat diet. On the basis of the description in JP 2020-065454 A and JP 2017-006022 A, the MC4R deficient mouse provided by Joel K. Elmquist at the Medical Center in Texas University was used (Cell, 2005; 123(3): 493-505). The genetic background of the MC4R deficient mouse is the C57BL/6J mouse. These mice were kept under the controlled condition of temperature, humidity, and lighting time (12 hours cycle of dark and bright), unless otherwise specifically noted. After weaning (4 weeks after the birth), they were raised with a high fat diet (D12492 (524 kcal/100 g; 60% fat content in terms of energy rate); Research Diets, Inc.) and with freely available drinking water. All the MC4R mice loaded with the high fat diet had the NASH-like symptom by 20 weeks old; it has been known that they develop hepatocarcinoma thereafter (Am. J. Pathol., 2011; 179(5):2454-2463). The MC4R deficient 20 weeks old mice loaded with the high fat diet were divided into two groups; the reference group (n=13) that is continued to be fed with the same high fat diet until 50 weeks old, and the taxifolin-administered group (n=12) that is fed with the high fat diet containing 3% of taxifolin. The mice raised until 50 weeks old were euthanized by deep anesthesia using three mixed anesthetic agents, and then, the liver of each individual was removed. The number of the precancerous symptoms (Foci) in the removed liver, the number of the tumors having the precancerous symptom clustered, and the size of the tumor were measured. The statistical analysis was conducted using Student t-test. In FIG. 3, the number of the precancerous symptoms, the number of the tumors having the precancerous symptom clustered, and the size of the tumor are expressed by the average value of each group±standard error.
# HepG2 cell = assay: Taxifolin's suppressing action on fatty acid capturing in HepG2 cells (Oil Red O lipid droplet staining); type: cell-based, human; conditions: 24 hours; for capturing amount of palmitic acid by the HepG2 cells: 400 μm palmitic acid, vs Group B without taxifolin
# Protocol: In Test example 2, the taxifolin's action on fatty acid capturing was studied by using the HepG2 cell, which is the cell strain derived from human hepatocarcinoma.
# The HepG2 cells were inoculated with the density of 0.2×10^6 cells/well on the plate having 24 wells, and they were cultured using the 10% FBS-containing DMEM medium until the HepG2 cells covered 70 to 80% of the surface in the culture vessel. The HepG2 cells cultured in the culture medium were washed with the phosphate buffer (PBS), then cultured for 24 hours in the serum-free medium containing 400 μm of palmitic acid, taxifolin with various concentrations, and 1% BSA, with n=6 in each Group A to E, as described in Table 2.
# The glucose concentration contained in the culture medium and in the serum-free medium were made 0%, 0.1% (low glucose), or 0.45% (high glucose).
# The HepG2 cells that had been cultured in the serum-free medium for 24 hours were immobilized by 4% paraformaldehyde after washing with PBS. The resulting immobilized HepG2 cells were treated with 60% isopropanol, and then the lipid drops in the cells were stained using Oil Red O (Wako Pure Chemical Industries, Ltd.). Thereafter, it was washed with 60% isopropanol and then with PBS. The resulting washed HepG2 cells were treated with 100% isopropanol to elute the Oil Red O out. The resulting eluted Oil Red O was recovered in the plate with 96 wells, and then the absorbance (550 nm) was measured using the microplate reader (Multiscan SkyHigh; Thermo Fisher Scientific, Inc.).
# The statistical analysis was conducted using Student t-test.
# In FIG. 2, the capturing amount of the fatty acid is expressed by the average value of each group±standard error.
# FIG. 2 indicates the capturing amount of the fatty acid in the HepG2 cells in each Group. The capturing amount in the HepG2 cells in each Group A to E is expressed by the percentage relative to Group A.
smiles,measurement,setting,value
O=C1c2c(O)cc(O)cc2O[C@H](c2ccc(O)c(O)c2)[C@H]1O [taxifolin],mRNA expression amount of CD36 in the liver tissue,CD36 gene expression; high fat diet containing 1% by weight of taxifolin for 12 weeks (HFD+1% TX-administered Group) vs HFD Group,significantly decreased
same,mRNA expression amount of CD36 in the liver tissue,CD36 gene expression; high fat diet containing 3% by weight of taxifolin for 12 weeks (HFD+3% TX-administered Group) vs HFD Group,significantly decreased; also recorded: suppressed to the same level as the ND Group
same,number of the precancerous symptoms (Foci) in the liver,MC4R deficient mouse,decreased drastically
same,number of the tumors having the precancerous symptom clustered,MC4R deficient mouse,decreased drastically
same,size of the tumor between 1 and 5 mm,MC4R deficient mouse,decreased significantly
same,concentration at which taxifolin suppressed the fatty acid capturing in the liver cells,"HepG2 cell; HepG2 cells, palmitic acid, lowest concentration tested",0.1 nM
same,capturing amount of palmitic acid by the HepG2 cells,"HepG2 cell; high glucose (0.45%), taxifolin 0.1 nM to 1 μM",same tendency
same,capturing amount of palmitic acid by the HepG2 cells,"HepG2 cell; low glucose (0.1%), taxifolin 0.1 nM or more",significantly decreased

# Source: US20250288554A1, “PROPHYLACTIC OR THERAPEUTIC AGENT FOR NON-ALCOHOLIC STEATOHEPATITIS-DERIVED HEPATOCARCINOMA” (SEAKNIT Biological Technology Co., Ltd., priority 2022, published 2025)
